Measurements published in patent US10800806B2, “Sterol derivatives and use thereof for treating diseases involving transformed astrocyte cells or for treating malignant haemopathies” (BETA INNOV, priority 2012, dated 2020).
Entries after “also recorded” stand apart in the source; their conditions may differ.

Legend:
[1] = test system: LDH from Lactobacillus leichmannii (LL); experiment: Inhibition of LDH activity, in gel assay after IEF; format: biochemical; details: ethanolic form, 36 mM
Experimental: The measurements of the activity of LDH and of its inhibition by a routine inhibitor, oxamate (23), were validated by the spectrometric method (24) using the purified LDH of Lactobacillus leichmannii (LL) (Sigma) as standard.
Next, the LDH activities and their inhibition were detected by the “in gel assay” technique (25). The source of activity used was LDH LL and LDH, partially purified, from human GBM lines U87-MG (LDH GBM). “In gel assay” detection was carried out after isoelectric focusing (IEF) on electrophoresis gels of the LDH LL and LDH GBM samples.
The mini-gels of 7.5 (T %) and of 2.6 (C %) are poured into Pi with the Ampholines (BioRad) making it possible to form a pH gradient in the range from 7 to 5 after pre-focusing in a cold chamber. The containers used are of the mini-protean 3 type (BioRad). […]
The LDH activity is detected by the lactate/NAD/MTT/phenazine methosulphate system (formation of a precipitate of the formazan type in the IEF gel); this system is described in reference (25). […]
The activity of LDH is detected by the “in gel assay” technique on IEF electrophoresis gels, which were described in the section “A/ PROTOCOLS 6)” (25); the precision of this technique is 0.2 unit of pH. The activity of LDH is detected by a dark blue precipitate, of the formazan type, the site where LDH activity is located.

[2] = test system: breast cancer cells (ATCC-HTB-19); experiment: Activity in vitro on breast cancer cells; format: cell-based, human; details: 30 μM, ethanolic form
Experimental: They were obtained from ATCC (ref. ATCC-HTB-19). The culture medium is the same as that used for the liver cancer lines. The doubling time is 20 h. • Colon carcinoma (line HT29/219)
(§1) The cancer cells used are from liver (ref. ATCC-HB-8065), prostate (ref. ATCC-HTB-81), breast (ref. ATCC-HTB-19) cancer cells, and from colon cancer cells (ECACC-HT29/219) of human origin, mentioned above.

[3] = test system: prostate cancer cells (ATCC-HTB-81); experiment: Activity in vitro on prostate cancer cells; format: cell-based, human; details: 30 μM, ethanolic form
Experimental: They were obtained from ATCC (ref. ATCC-HTB-81). The culture medium is the same as that used for the liver cancer lines. The doubling time is 60 h. • Breast cancer cells
as §1

[4] = test system: CD133+ stem cells (U87-MG cultures); experiment: Immunolabelling of the CD133+ stem cells with the A/B peroxidase system; format: cell-based, human; details: for CD133+ cells, percentage relative to the controls: 30 μM in ethanolic form
Experimental: The anti-CD133 (poly, Abnova), anti-GFAP (poly, Sigma), anti-NFL (mono, Santa Cruz) and anti-fibroblast (ERTR7, Santa Cruz) primary antibodies are diluted to 1/100 in the case of the first three antibodies and to 1/50 in the case of the last.
The secondary antibodies corresponding to recognition of the primary antibodies are anti-rabbit antibodies coupled to peroxidase (goat, Sigma), anti-mouse coupled to Dylight 488 (sheep, Sigma), anti-mouse coupled to Dylight 488 (sheep, Sigma) and anti-rat coupled to FITC (rabbit, Sigma). The dilutions are 1/4000, 1/1000, 1/4000 and 1/400 respectively.
The cells are permeabilized for 5 min with 0.1% Triton X-100 (Sigma) in PBS (Fisher Scientific). The nonspecific sites are blocked with 2% BSA (Sigma) in PBS. Incubations are carried out for 1 h at ambient temperature, 48 h at 4° C., 24 h at 4° C. and 1 h at ambient temperature for the anti-CD133, anti-GFAP, anti-NFL and anti-Fibroblast antibodies respectively. Incubation with the secondary antibodies is carried out for 1 h at ambient temperature. The CD133 positive cells are detected by the DAB/H2O2 system (Sigma), and observed with an optical microscope.
The immunolabelling is carried out as described above (section II, A).

## CC(=O)OC1C=C2CC(OC(=O)C3COC(C)(C)O3)CCC2(C)C2CCC3(C)C(C(C)CCCC(C)C)CCC3C12 (stereo not shown) [Molecule 2.b, 7-acetoxy-10,13-dimethyl-17-(6-methylheptan-2-yl)-2,3,4,7,8,9,10,11,12,13,14,15,16,17-tetradecahydro-1H-cyclopenta[a]phenanthren-3-yl 2,2-dimethyl-1,3-dioxolane-4-carboxylate]
[1]
  inhibition of the enzymatic activity of LDH LL: almost completely
[2]
  effect on cellular division and respiration: no effect
[3]
  effect on cellular division and respiration: no effect
[4]; 4 days of treatment
  CD133+ cells, percentage relative to the controls: 100%
[4]; 22 days of treatment
  CD133+ cells, percentage relative to the controls: 0%
[4]; ethanolic form, 22 days of treatment
  destruction of the CD133+ stem cells: completely destroyed; also recorded: completely destroys the stem cells
[4]; medium replaced at 22 days
  appearance of CD133+ stem cells after replacing the culture medium with fresh drug-free medium: does not lead to the appearance of CD133+ stem cells
